Residues, ends and D or L forms follow the SMILES beside them. *: point of attachment. Boc = CC(C)(C)OC(=O)* Where only a bound is given, the exact number is not on record here.

In general, melting point refers to the temperature of the solid-liquid transition.

For the compound `Cc1cccc(C)c1-n1cc(C#N)c(=O)n(SC(Cl)(Cl)Cl)c1=O`, the melting point was in the range of 223 to 225 °C.

For the compound `Nc1ccc2c(c1)c(=O)[nH]c(=O)n2CCCCN1CCC(OC(c2ccccc2)c2ccccc2)CC1`, the melting point lay within 131 to 133 °C.

Compound `COc1ccccc1OCC(O)CNCCOc1ccc(C(N)=O)cn1` (stereo not given) registered a melting point of 98 to 105 °C.

In the case of `CC(C)(C)NS(=O)(=O)c1cccc2c1SC(C)(C)C2`, the melting point was 103 to 105 °C.

Turning to `CCCc1n[nH]c2c(=O)[nH]c(-c3ccccc3OCC)nc12`, the melting point was 199 to 201 °C.

The compound `C#CCCCCOc1ccc(C=O)cc1OC` had a melting point of 67 to 68 °C.

In turn, `NC(=O)c1c(F)cccc1[N+](=O)[O-]` showed a melting point of 161 to 162 °C.

Turning to `CN1C(=O)CCC1(O)c1cccc(C(F)(F)F)c1` (stereo not given), the melting point lay within 137 to 139 °C.

On to `CC(C)n1nc(-c2sc(NC(=N)N)nc2-c2ccccc2)ccc1=O`, for which the melting point is over 250 °C.

For the compound `CCN1CCC(C(=O)NO)(S(=O)(=O)c2ccc(Oc3ccc(Cl)cc3)cc2)CC1`, the melting point worked out at 158 °C.

For the compound `CC(C)c1nc(COCCOC(N)=O)n(Cc2ccccn2)c1Sc1cc(F)cc(F)c1`, the melting point was 110 to 111 °C.

Take `CCOC(=O)Nc1ccc(C2=NN(c3nnc(C)s3)[C@H](C)Cc3cc4c(cc32)OCO4)cc1C`: the melting point lay in the range of 241 to 244 °C.

For the compound `O=C(NC(Cc1c[nH]c2ccccc12)C(=O)CCc1cc(C(F)(F)F)cc(C(F)(F)F)c1)OCCc1ccccn1` (stereo not given), the melting point is 133 to 135 °C.

`Cc1ccccc1C(C(=O)N[C@H]1CCN(CCc2ccc(F)cc2)C1)c1ccccc1C`: the melting point lay within 108 to 110 °C.

The compound `CC(C)Oc1cc(-n2c(=O)cc(C(F)(F)F)[nH]c2=O)c(F)cc1Cl` came in with a melting point of 195 to 197 °C.

In the case of `CC1(C)CC(=O)Oc2ccc(O)cc21`, the melting point is 95 to 96 °C.

Take `O=C(CCCCCl)c1cccc2c1OCCO2`: the melting point lay within 32 to 38 °C.

The compound `CN(C)C(=O)c1ccccc1I` yielded a melting point of 33 to 36 °C.

As for `CCCCCCCCCCCCCCOc1cccc(CC(=O)OC)c1`, the melting point was 31 to 33 °C.

`CCOC(=O)c1c2c3c(cccc3n1C)C(OC)CC2` (stereo not given) displayed a melting point of 63 to 64 °C.

The compound `COC(=O)CSC(c1ccccc1OC)c1ccccc1OC` registered a melting point of 65 to 67 °C.

In turn, `Cc1ccc(S(=O)(=O)N[C@@H](C)C(=O)Oc2csc(-c3ccccc3)n2)cc1` displayed a melting point of 110 to 112 °C.

`COc1ccc(OC)c2c1C[C@](O)(C1(C)OCCO1)CC2=O` showed a melting point of 183 to 184 °C.

`CC(CC(=O)O)c1ccc(-c2ccccc2)c(Cl)c1` (stereo not given) gave a melting point of 66 to 67 °C.

`COc1cc(N2CCN([C@H]3CC[C@H](c4cn(C)c5ccc(C#N)cc54)CC3)CC2)c2ncccc2c1Cl` displayed a melting point of 215 to 216 °C.

In the case of `FC(F)(F)c1ccc(C2=CCC(N3CCN(Cc4ccccc4)CC3)CC2)cc1` (stereo not given), the melting point was in the range of 115 to 116 °C.

For the compound `COc1ccc(-c2coc3ccc(-c4nnc(SCc5ccc(OC)c(F)c5)o4)cc23)cc1`, the melting point was 162 to 163 °C.

The compound `CCCCC(=O)Oc1c(-c2ccc(-c3ccccc3)cc2)nc2ccc(F)cc2c1C(=O)O` showed a melting point of 214 to 217 °C.

As for `CN(Cc1ccc(CCn2cnc3cc(-c4ccc(Cl)cc4)sc3c2=O)cc1)C(=O)CCl`, the melting point lay within 162 to 165 °C.

`CCCCNc1c2c(nc3c1cnn3CC)C(=O)c1ccccc1CC2` showed a melting point of 181 to 183 °C.

Compound `CC1(C)OCc2c1nc1ccccc1c2Cl` yielded a melting point of 108 to 110 °C.

Compound `COc1ccc(C2OCCN2CCNc2ccc(NCCN3CCOC3c3ccc(OC)cc3OC)c3c2C(=O)c2c(O)ccc(O)c2C3=O)c(OC)c1` (stereo not given) returned a melting point of 181 to 185 °C.

In the case of `COC(=O)CN(c1ccccc1)c1ccc(OC)cc1C(=O)OC`, the melting point lay in the range of 85 to 87 °C.

As for `COc1ccc(/C=N/Nc2cc(=O)[nH]c3cc(Cl)ccc23)cc1OC1CCCC1`, the melting point was in the range of 210 to 212 °C.

In turn, `CS(=O)(=O)c1ccc(-c2cnn(-c3cccc(Cl)c3)c(=O)c2OCc2ccccc2)cc1` came in with a melting point of 110 to 113 °C.

As to `O=[N+]([O-])c1cn2c(n1)O[C@@H](COc1ccc(N3CCC(Nc4ccc(Oc5ccc(OC(F)(F)F)cc5)cc4)CC3)cc1)CC2`, the melting point lay in the range of 120 to 121 °C.

As to `O=S(=O)(Cc1ccc(C(O)c2ccc(Cl)cc2)cc1)C(F)(F)F` (stereo not given), the melting point is 113 to 115 °C.

Compound `CN1CCN(CCCc2cc3ccccc3c(=O)[nH]2)CC1` returned a melting point of 120 to 122 °C.

`CC1=NCN(c2ccc(Br)s2)O1` registered a melting point of 48 to 49 °C.

The compound `CCCOc1ccccc1-c1nc(O)cc(C(=O)OCC)n1` showed a melting point of 137 to 138 °C.

`O[C@@H]1CN(CC2CC2)CC[C@@H]1c1ccccc1` (relative stereo) yielded a melting point of 94 to 97 °C.

On to `Oc1ccc2c(c1)C[C@@H](NC[C@H](O)c1ccc(OCc3ccccc3)cc1)CC2`, for which the melting point fell in the range of 132 to 134 °C.

The compound `COc1ccc(-c2ccc(Cl)cc2)cc1OC1CCCC1` displayed a melting point of 88 to 91 °C.

With `COc1ccc(/C=C/C(=O)C2C(=O)CC(c3ccc(OC)cc3)C([N+](=O)[O-])C2c2ccco2)cc1` (stereo not given), the melting point was 192 °C.

In turn, `COCC1CN(c2ccc3cc(OCC4CC4)ccc3c2)C(=O)O1` (stereo not given) displayed a melting point of 119 to 120 °C.

`CC(C)(C)NCC(O)c1cc(Br)c(N)c([N+](=O)[O-])c1` (stereo not given) returned a melting point of 151 to 152 °C.

`CCCCCCCCc1ccc(C=Nc2ccc(C#N)cc2)cc1` came in with a melting point of 32.5 to 32.8 °C.

`CC(=O)Nc1ncc2ncn(COC(COC(C)C)COC(C)C)c2n1` returned a melting point of 85 to 86 °C.

`Cc1c(C)c2c(c(C)c1NC(=O)CC(C)(C)C)C(C)(c1ccc(C(C)C)cc1)CO2` (stereo not given) showed a melting point of 194 to 195 °C.

The compound `COc1ccc(C2Cc3cc(C(F)(F)F)ccc3NC(=O)C2CO)cc1` (stereo not given) registered a melting point of 190 °C.

`O=C(Cc1ccc(Cl)cc1)c1cccc(S(=O)(=O)N2CCCCCC2)c1` came in with a melting point of 135 to 136 °C.

`O=C(NCO)c1cccc(Oc2ccccc2)c1` yielded a melting point of 112 to 113 °C.

Compound `O=C1NCCCN1CCCN(Cc1ccccc1)CC1CCc2ccccc2O1` (stereo not given) displayed a melting point of 94.7 °C.

`CS[C@H]([C@@H](C)C(=O)O)[C@@H]1CCCN1C(=O)OC(C)(C)C` had a melting point of 141 to 142 °C.

As to `O=c1ccoc2c1ccc1ncccc12`, the melting point lay within 146 to 147 °C.

`CN(C)Cc1ccc(CNC(=O)C2Cc3ccccc3N2S(=O)(=O)c2ccc(-c3cccc(C(F)(F)F)c3)cc2)cc1` (stereo not given) came in with a melting point of 70 °C.

Consider `CCCc1nc(N2CCc3ccccc3CC2)c(C#N)c(=O)n1CC(F)(F)F`, for which the melting point was in the range of 104 to 106 °C.

As for `COc1ccc(Cc2sc3ccccc3c2-c2ccc(-c3ccc(OC(Cc4ccccc4)C(=O)O)cc3)cc2)c(OC)c1` (stereo not given), the melting point was 70 to 72 °C.

`CN1CCN(C(=O)c2ccc3n2Cc2ccc(C(=O)O)cc2N(C(=O)c2ccc(C4CCCCC4)cc2)C3)CC1` returned a melting point of 195 to 210 °C.

The compound `CCOCc1nc2c(N)nc3cc(OCCCCCCNS(C)(=O)=O)ccc3c2n1CC(C)(C)NS(C)(=O)=O` displayed a melting point of 176 to 180 °C.

The compound `CCOC(=O)c1ccc(C=O)cn1` displayed a melting point of 59 °C.

In turn, `O=C1CNc2ncc(-c3cccnc3)cc2N1Cc1c(Cl)cccc1Cl` returned a melting point of over 200 °C.

`COC(=O)C(CCSC)NC(=O)C(CC(C)C)NC(=O)CNC(=O)C(NC(=O)C(Cc1ccccc1)NC(=O)C(C)NC(=O)OC(C)(C)C)C(C)C` (stereo not given) (Boc-AFVGLM-OMe; configuration not given here): the melting point was in the range of 252 to 254 °C.

In turn, `Cc1cc(C)c2c(c1C)OC(C)(CBr)C2` (stereo not given) showed a melting point of 39 to 40 °C.

Consider `CN(C)S(=O)(=O)N1CCN(S(=O)(=O)c2ccc(-c3ccc(CC#N)cc3)s2)[C@@H](C(=O)NO)C1`, for which the melting point lay in the range of 170 to 172 °C.

For the compound `CC(=CN1CCC(CCCC2CCN(C=C(C)c3ccccc3)CC2)CC1)c1ccccc1`, the melting point was 120 °C.

Compound `COc1ccc2c(c1)CCC1C2CCC2(C)C(=O)C=C(C(C)C)C12` (stereo not given) registered a melting point of 113 to 116 °C.

In turn, `CCSc1c(C=O)c(=O)n(C)c(=O)n1C` registered a melting point of 72 °C.

For `CN1CCC(C2(O)c3sccc3CCn3ccnc32)CC1` (stereo not given), the melting point is 177 °C.

The compound `CCOC(=O)c1nc(NC(C)=O)sc1Cc1cccc(SC)c1` gave a melting point of 188 °C.

As to `Fc1ccc(C2=NOC(CN=C=S)C2)cc1` (stereo not given), the melting point is 59 to 61 °C.

Consider `CC(=O)N1CCc2cc(C(=O)C(C)Br)ccc21` (stereo not given), for which the melting point lay within 140 to 142 °C.

For `COc1ccc(S(=O)(=O)N(CC(N)=O)c2ccc(Cl)cc2C(O)c2ccccc2Cl)c(OC)c1` (stereo not given), the melting point was determined as 158 °C.

As to `O=c1oc2ccccc2c(O)c1C1CC(c2ccc(OCc3ccc(-c4ccc(-c5ccccc5)cc4)cc3)cc2)Cc2ccccc21` (stereo not given), the melting point lay within 245 to 248 °C.

The compound `NNc1c(S(=O)(=O)C(F)(F)F)cnn1-c1c(Cl)cc(C(F)(F)F)cc1Cl` returned a melting point of 154 °C.

Compound `CC(C)c1n[nH]c2c(Cl)nc(Cl)nc12` registered a melting point of over 250 °C.

For `CCOC(=O)C(Cc1ccc(OCCBr)cc1)OCC` (stereo not given), the melting point lay within 110 to 114 °C.

The compound `Cc1ccccc1-c1cc(N2CCS(=O)(=O)CC2)ncc1N(C)C(=O)C(C)(C)c1cc(C(F)(F)F)cc(C(F)(F)F)c1` displayed a melting point of 200 to 201 °C.

The compound `CC(C)c1nc(C(C)C)c(CSc2cccc(F)c2)c(-c2ccc(F)cc2)c1CO` returned a melting point of 99 to 100 °C.

`CCCCOP(=O)(CCCCCC1(C(=O)NCC(F)(F)F)c2ccccc2-c2ccccc21)OCCCC` yielded a melting point of 88 to 91 °C.

`CN(C(=O)c1cccc2ccccc12)[C@H](Cc1ccc(C(F)(F)F)cc1)[C@@H](O)c1ccc(F)cc1` (racemic) had a melting point of 196 to 197 °C.

Consider `CC(C)(C)C(=O)N[C@H]1CC[C@H](CCN2CCN(c3nccc4c3CCO4)CC2)CC1`, for which the melting point was found to be 185 °C.

Compound `CCOC(=O)c1cnc2c(O)cccc2c1` had a melting point of 118 °C.

On to `CCOP(=O)(CNc1ccc(Cl)cc1[N+](=O)[O-])OCC`, for which the melting point fell in the range of 94 to 95 °C.

`O=C(O)CCN1CCN(c2cccc(C(F)(F)F)c2)CC1` gave a melting point of 228 to 230 °C.

The record behind these values is a melting point compilation (Tetko et al.; mined from patent text by program, amines drawn as free bases though some values may be those of a salt).
